Measurements from patent US20120058541A1, “ENGINEERING RESISTANCE TO ALIPHATIC ALCOHOLS” (BUTAMAX(TM) ADVANCED BIOFUELS LLC, priority 2009, published 2012).

Tested on: L. plantarum PN0512
Procedure: IC50 values were determined in shake flasks as follows. Duplicate glass test tubes containing 5 ml MRS medium plus 10 μg/ml chloramphenicol (MRS-Cm) were each inoculated with a single colony and grown for 24 h at 30° C. in a rollerdrum. 500 μl of each of these cultures were used to inoculate 25 ml MRS-Cm, which was grown for 16 h at 30° C. with shaking at 110 rpm. […] Cultures were grown at 30° C. with shaking at 110 rpm, and growth was measured by monitoring OD600. OD600 values that were clearly off the growth curve were discarded (less than 1% of values were discarded).
This is mathematically equivalent to drawing a line between (C1,I1) and (C2,I2) and finding the concentration at which that line intersects I=50%. An IC50 was calculated for each set of flasks inoculated from the same preculture. An average IC50 was also calculated.

## CCCCO [Strain 1-butanol, 1-butanol]
  1-butanol IC90: 2.3%
